Measurements: patent US20250032525A1 (priority 2021, published 2025)
Read-outs that look alike come from different tables or passages of the source.

Legend:
A431-G2 = assay: In vitro cytotoxicity; assay type: cell-based
Source text: (§1) Experiments were repeated at least 3 times.

A431 = assay: In vitro cytotoxicity; assay type: cell-based; conditions: Homo sapiens, A-431
Source text: as §1

P388/ADR = assay: In vitro cytotoxicity; assay type: cell-based; conditions: Mus musculus
Source text: as §1

COLO 205 [1] = conditions: COLO 205, NCI-60 database, sulforhodamine B; read-out: Cytotoxic IC50; cited from earlier work
KM12 = conditions: KM12, NCI-60 database, sulforhodamine B; read-out: Cytotoxic IC50; cited from earlier work
NCI-H226 [2] = conditions: NCI-H226, NCI-60 database, sulforhodamine B; read-out: Cytotoxic IC50; cited from earlier work
A498 [3] = conditions: A498, NCI-60 database, sulforhodamine B; read-out: Cytotoxic IC50; cited from earlier work
CAKI-1 [4] = conditions: CAKI-1, NCI-60 database, sulforhodamine B; read-out: Cytotoxic IC50; cited from earlier work
MDA-MB-435 [5] = conditions: MDA-MB-435, NCI-60 database, sulforhodamine B; read-out: Cytotoxic IC50; cited from earlier work
Brcal^−/−;p53^−/− tumors = conditions: cited from earlier work
[6] = system: panel of cell lines of various tissue of origin; assay: In vitro cytotoxicity, panel of cell lines (PrestoBlue); assay type: cell-based, human; conditions: for IC50: Homo sapiens
Source text: as §1

A498 [7] = assay: In vitro cytotoxicity (PrestoBlue); assay type: cell-based; conditions: Homo sapiens, A498, 72 h; read-out: Cytotoxic IC50
Source text: as §1

CAKI-1 [8] = assay: In vitro cytotoxicity (PrestoBlue); assay type: cell-based; conditions: Homo sapiens, CAKI-1, 72 h; read-out: Cytotoxic IC50
Source text: as §1

CCRF-CEM = assay: In vitro cytotoxicity (PrestoBlue); assay type: cell-based; conditions: Homo sapiens, 72 h, read-out: Cytotoxic IC50
Source text: as §1

COLO 205 [9] = assay: In vitro cytotoxicity (PrestoBlue); assay type: cell-based; conditions: Homo sapiens, COLO 205, 72 h; read-out: Cytotoxic IC50
Source text: as §1

DU-145 = assay: In vitro cytotoxicity (PrestoBlue); assay type: cell-based; conditions: Homo sapiens, DU-145, 72 h; read-out: Cytotoxic IC50
Source text: as §1

EKVX = assay: In vitro cytotoxicity (PrestoBlue); assay type: cell-based; conditions: Homo sapiens, 72 h, read-out: Cytotoxic IC50
Source text: as §1

HCT-116 = assay: In vitro cytotoxicity (PrestoBlue); assay type: cell-based; conditions: Homo sapiens, HCT-116, 72 h; read-out: Cytotoxic IC50
Source text: as §1

HL-60(TB) = assay: In vitro cytotoxicity (PrestoBlue); assay type: cell-based; conditions: Homo sapiens, 72 h, read-out: Cytotoxic IC50
Source text: as §1

MDA-MB-435 [10] = assay: In vitro cytotoxicity (PrestoBlue); assay type: cell-based; conditions: Homo sapiens, MDA-MB-435, 72 h; read-out: Cytotoxic IC50
Source text: as §1

NCI-H226 [11] = assay: In vitro cytotoxicity (PrestoBlue); assay type: cell-based; conditions: Homo sapiens, NCI-H226, 72 h; read-out: Cytotoxic IC50
Source text: as §1

NCI-H522 = assay: In vitro cytotoxicity (PrestoBlue); assay type: cell-based; conditions: Homo sapiens, NCI-H522, 72 h; read-out: Cytotoxic IC50
Source text: as §1

OVCAR-3 = assay: In vitro cytotoxicity (PrestoBlue); assay type: cell-based; conditions: Homo sapiens, OVCAR-3, 72 h; read-out: Cytotoxic IC50
Source text: as §1

PANC-1 = assay: In vitro cytotoxicity (PrestoBlue); assay type: cell-based; conditions: Homo sapiens, PANC-1, 72 h; read-out: Cytotoxic IC50
Source text: as §1

PC-3 = assay: In vitro cytotoxicity (PrestoBlue); assay type: cell-based; conditions: Homo sapiens, PC-3, 72 h; read-out: Cytotoxic IC50
Source text: as §1

RXF 393 = assay: In vitro cytotoxicity (PrestoBlue); assay type: cell-based; conditions: Homo sapiens, RXF 393, 72 h; read-out: Cytotoxic IC50
Source text: as §1

SK-MEL-28 = assay: In vitro cytotoxicity (PrestoBlue); assay type: cell-based; conditions: Homo sapiens, SK-MEL-28, 72 h; read-out: Cytotoxic IC50
Source text: as §1

SK-MEL-2 = assay: In vitro cytotoxicity (PrestoBlue); assay type: cell-based; conditions: Homo sapiens, SK-MEL-2, 72 h; read-out: Cytotoxic IC50
Source text: as §1

SW-620 = assay: In vitro cytotoxicity (PrestoBlue); assay type: cell-based; conditions: Homo sapiens, SW-620, 72 h; read-out: Cytotoxic IC50
Source text: as §1

UO-31 = assay: In vitro cytotoxicity (PrestoBlue); assay type: cell-based; conditions: Homo sapiens, UO-31, 72 h; read-out: Cytotoxic IC50
Source text: as §1

HCT-15 = assay: In vitro cytotoxicity (PrestoBlue); assay type: cell-based, human; conditions: HCT-15, 72 h, read-out: Cytotoxic IC50
Source text: as §1

HT29 = assay: In vitro cytotoxicity (PrestoBlue); assay type: cell-based, human; conditions: HT29, 72 h, read-out: Cytotoxic IC50
Source text: as §1

[12] = system: MCF-7 human breast adenocarcinoma cells; conditions: reported by Mező; cited from earlier work

COc1cccc2c1C(=O)c1c(O)c3c(c(O)c1C2=O)C[C@@](O)(C(=O)CO)C[C@@H]3O[C@H]1C[C@H](N)[C@H](O)[C@H](C)O1 [DOX, doxorubicin] gave an IC50 (A431-G2) of 170 nM, an IC50 (A431) of 65 nM and an IC50 (P388/ADR; read-out: IC50) of 2040 nM. The IC50 (P388/ADR; read-out: IC50 + TQ, heading: IC50 + TQ, presence of 1 μM tariquidar) was 690 nM, the IC50 (COLO 205 [1]) was 158 nM and the IC50 (KM12) was 223 nM. The IC50 (NCI-H226 [2]) was 52.4 nM, the IC50 (A498 [3]) was 85.5 nM and the IC50 (CAKI-1 [4]) was 190 nM. For the same compound, the IC50 (MDA-MB-435 [5]) was 258 nM, the “Outcome of treatment at MTD” value (Brcal^−/−;p53^−/− tumors; DOX 5 mg/kg, PLD 8 mg/kg, FIG. 10 from Füredi et al.) was “all tumors developed resistance” and the “Maximum tolerable dose (MTD)” value (Brcal^−/−;p53^−/− tumors; iv., FVB mice with Brcal^−/−;p53^−/− tumors) was 5 mg/kg.
Work on COc1cccc2c1C(=O)c1c(O)c3c(c(O)c1C2=O)C[C@@](O)(C(C)=O)C[C@@H]3O[C@H]1C[C@H]2[C@H](OC3CCCN32)[C@H](C)O1 (stereo partly drawn) [PyDau, 2-deamino-2-pyrrolino-daunorubicin] yielded an IC50 ([6]; average IC50 within the breast group, read-out: Cytotoxic IC50, av. breast) of 3.23 nM, an IC50 ([6]; average IC50 within the colorectal group, read-out: Cytotoxic IC50, av. colorectal) of 3.39 nM and an IC50 ([6]; average IC50 within the leukaemia group, read-out: Cytotoxic IC50, av. leukaemia) of 0.57 nM. It also gave an IC50 ([6]; average IC50 within the lung group, read-out: Cytotoxic IC50, av. lung) of 4.21 nM, an IC50 ([6]; average IC50 within the melanoma group, read-out: Cytotoxic IC50, av. melanoma) of 4.08 nM and an IC50 ([6]; average IC50 within the ovarian group, read-out: Cytotoxic IC50, av. ovarian) of 1.43 nM. It also gave an IC50 ([6]; average IC50 within the pancreatic group, read-out: Cytotoxic IC50, av. pancreatic) of 3.23 nM, an IC50 ([6]; average IC50 within the prostate group, read-out: Cytotoxic IC50, av. prostatic) of 1.93 nM and an IC50 ([6]; average IC50 within the renal group, read-out: Cytotoxic IC50, av. renal) of 5.2 nM. The IC50 ([6]; panel of cell lines, FIG. 1, read-out: IC50 values ranging across every cell line of the panel) was 0.23 to 14.3 nM, the IC50 ([6]; panel of cell lines, typical range, read-out: IC50 values, typically) was 1 to 10 nM and the “Effectiveness against multidrug resistant cells” value ([6]; Pgp expressing multidrug resistant HCT-15 and NCI/ADR-RES cells) was “effective”. It also gave an IC50 (A498 [7]) of 13.3 nM, an IC50 (CAKI-1 [8]) of 1.4 nM and an IC50 (CCRF-CEM) of 0.23 nM. It also gave an IC50 (COLO 205 [9]) of 2.38 nM, an IC50 (DU-145) of 1.31 nM and an IC50 (EKVX) of 3.67 nM. It also gave an IC50 (HCT-116) of 3 nM, an IC50 (HL-60(TB)) of 0.9 nM and an IC50 (MDA-MB-435 [10]) of 1.86 nM. It also gave an IC50 (NCI-H226 [11]) of 4.44 nM, an IC50 (NCI-H522) of 0.94 nM and an IC50 (OVCAR-3) of 1.22 nM. It also gave an IC50 (PANC-1) of 1.77 nM, an IC50 (PC-3) of 2.54 nM and an IC50 (RXF 393) of 4.66 nM. It also gave an IC50 (SK-MEL-28) of 6.87 nM, an IC50 (SK-MEL-2) of 3.55 nM and an IC50 (SW-620) of 2.78 nM. The IC50 (UO-31) was 1.43 nM, the IC50 (HCT-15) was 2.42 nM and the IC50 (HCT-15; Homo sapiens) was 2.86 nM. For the same compound, the IC50 (HT29) was 3.53 nM, the IC50 (HT29; Homo sapiens, HT-29, 72 h) was 3.05 nM and the IC50 [12] was 0.2 nM.
